Reference: the supplement of paper PMC10307832

Assays:
Experiment in all cases: relative viability (nuclei count vs DMSO), 5 days (fraction); higher = more cells survive
Avagacestat + Pemetrexed = compound: NC(=O)[C@@H](CCC(F)(F)F)N(Cc1ccc(-c2ncon2)cc1F)S(=O)(=O)c1ccc(Cl)cc1 [Avagacestat] + Nc1nc2[nH]cc(CCc3ccc(C(=O)N[C@@H](CCC(=O)O)C(=O)O)cc3)c2c(=O)[nH]1 [Pemetrexed] (partner 0.2 µM)
In short: (§1)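 A single step with final 0.05% Triton X-100, 1% formaldehyde and 1 ug/ml Hoechst fixed the cells and stained nuclei 5 days after treatment. Lung cancer cell lines in 1536-well plates had been treated by pin tool the day after seeding with one drug alone or a fixed anchor-drug dose plus five library-drug doses (not always all listed) in √10 steps, and nuclei were counted on 4× images. Relative viability is the ratio of nuclei in treated wells to nuclei in vehicle wells, taken as the median of duplicate plates.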

Avagacestat + Linsitinib = compound: NC(=O)[C@@H](CCC(F)(F)F)N(Cc1ccc(-c2ncon2)cc1F)S(=O)(=O)c1ccc(Cl)cc1 [Avagacestat] + C[C@]1(O)C[C@@H](c2nc(-c3ccc4ccc(-c5ccccc5)nc4c3)c3c(N)nccn32)C1 [Linsitinib] (partner 1 µM)
In short: as §1

Avagacestat + Vorinostat = compound: NC(=O)[C@@H](CCC(F)(F)F)N(Cc1ccc(-c2ncon2)cc1F)S(=O)(=O)c1ccc(Cl)cc1 [Avagacestat] + O=C(CCCCCCC(=O)Nc1ccccc1)NO [Vorinostat] (partner 1 µM)
In short: as §1

Avagacestat + Navitoclax = compound: NC(=O)[C@@H](CCC(F)(F)F)N(Cc1ccc(-c2ncon2)cc1F)S(=O)(=O)c1ccc(Cl)cc1 [Avagacestat] + CC1(C)CCC(c2ccc(Cl)cc2)=C(CN2CCN(c3ccc(C(=O)NS(=O)(=O)c4ccc(N[C@H](CCN5CCOCC5)CSc5ccccc5)c(S(=O)(=O)C(F)(F)F)c4)cc3)CC2)C1 [Navitoclax] (partner 0.5 µM)
In short: as §1

Row | Cell Line | relative viability (Avagacestat + Pemetrexed; first compound 0.08 µM) | relative viability (Avagacestat + Pemetrexed; first compound 0.253 µM) | relative viability (Avagacestat + Pemetrexed; first compound 0.8 µM) | relative viability (Avagacestat + Pemetrexed; first compound 2.53 µM) | relative viability (Avagacestat + Pemetrexed; first compound 8 µM) | relative viability (Avagacestat + Linsitinib; first compound 0.08 µM) | relative viability (Avagacestat + Linsitinib; first compound 0.253 µM) | relative viability (Avagacestat + Linsitinib; first compound 0.8 µM) | relative viability (Avagacestat + Linsitinib; first compound 2.53 µM) | relative viability (Avagacestat + Linsitinib; first compound 8 µM) | relative viability (Avagacestat + Vorinostat; first compound 0.08 µM) | relative viability (Avagacestat + Vorinostat; first compound 0.253 µM) | relative viability (Avagacestat + Vorinostat; first compound 0.8 µM) | relative viability (Avagacestat + Vorinostat; first compound 2.53 µM) | relative viability (Avagacestat + Vorinostat; first compound 8 µM) | relative viability (Avagacestat + Navitoclax; first compound 0.08 µM) | relative viability (Avagacestat + Navitoclax; first compound 0.253 µM) | relative viability (Avagacestat + Navitoclax; first compound 0.8 µM) | relative viability (Avagacestat + Navitoclax; first compound 2.53 µM) | relative viability (Avagacestat + Navitoclax; first compound 8 µM)
1 | NCI-H3122 | 0.216 | 0.238 | 0.208 | 0.195 | 0.205 | 1.05 | 1.02 | 0.989 | 1.01 | 1 | 1.07 | 1.4 | 1.01 | 1.02 | 0.918 | 0.95 | 1.09 | 1.08 | 1.01 | 1.03
2 | PC-3 [JPC-3] | 1.24 | 1.36 | 1.62 | 1.25 | 1.04 | 1.01 | 1.02 | 0.976 | 1.04 | 0.967 | 0.944 | 0.87 | 1.33 | 0.857 | 0.949 | 0.908 | 0.885 | 0.864 | 0.821 | 0.761
3 | PC-14 | 0.137 | 0.142 | 0.134 | 0.124 | 0.136 | 1.11 | 1.07 | 1.09 | 1 | 0.855 | 0.774 | 0.725 | 0.808 | 0.589 | 0.619 | 1.19 | 1.19 | 1.12 | 0.97 | 0.899
4 | RERF-LC-KJ | 0.479 | 0.477 | 0.461 | 0.465 | 0.437 | 0.896 | 0.981 | 0.92 | 0.848 | 0.761 | 0.724 | 0.64 | 0.801 | 0.685 | 0.601 | 1.11 | 0.878 | 0.874 | 0.982 | 1.1
5 | SK-LU-1 | 1.19 | 0.972 | 0.951 | 0.97 | 0.741 | 1.13 | 1.3 | 1.02 | 0.918 | 0.983 | 0.885 | 0.714 | 0.865 | 0.636 | 0.71 | 1.11 | 1.08 | 1 | 0.706 | 0.93
6 | SK-MES-1 | 1.08 | 1.07 | 1.05 | 0.878 | 0.892 | 1.07 | 1.15 | 1.11 | 1.06 | 0.958 | 1.12 | 1.35 | 1.29 | 1.06 | 1.02 | 1.32 | 1.29 | 1.27 | 1.2 | 1.27
7 | SW 1573 | 0.99 | 1.01 | 0.925 | 0.887 | 0.85 | 0.894 | 0.876 | 0.756 | 0.771 | 0.699 | 0.933 | 0.672 | 1.05 | 0.624 | 0.672 | 1.3 | 0.97 | 0.989 | 1.04 | 0.974
8 | UMC-11 | 0.884 | 0.887 | 1.01 | 0.796 | 0.718 | 1.2 | 1.12 | 1.18 | 1.04 | 0.933 | 0.388 | 0.396 | 0.398 | 0.396 | 0.412 | 0.324 | 0.316 | 0.321 | 0.286 | 0.299
